According to PubChem BioAssay AID328 (DTP/NCI, 2004):
“And” between values parts separate entries of the source, which are not always exact repeats. Identical values can stand only once. Toxic doses and inconclusive results are not listed. The calls were made as follows: active = survival T/C of 150% or more; inactive = T/C below 125% in these data. Residues, ends and D or L forms follow the SMILES beside them. *: point of attachment. Cbz = O=C(OCc1ccccc1)*; Bn = c1ccc(C*)cc1

System: BDF1 mice, P388 leukemia ip, median survival T/C
Assay: NCI In Vivo Anticancer Drug Screen. Data for tumor model P388 Leukemia (intraperitoneal) in B6D2F1 (BDF1) mice
Conditions: endpoint: median survival time, higher = longer survival
How it was run: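 Reported as T/C, where T is the survival measurement in dosed animals and C the same measurement in vehicle controls.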

[1] = dose: 25.0 mg/kg/injection, schedule: Q01DX009 (ip), vehicle: saline with Tween-80
[2] = dose: 50.0 mg/kg/injection, schedule: Q01DX009 (ip), vehicle: saline with Tween-80
[3] = dose: 100.0 mg/kg/injection, schedule: Q01DX009 (ip), vehicle: saline with Tween-80
[4] = dose: 200.0 mg/kg/injection, schedule: Q01DX009 (ip), vehicle: saline with Tween-80
[5] = dose: 400.0 mg/kg/injection, schedule: Q01DX009 (ip), vehicle: saline with Tween-80
[6] = dose: 400.0 mg/kg/injection, schedule: Q04DX003 (ip), vehicle: saline with Tween-80
[7] = dose: 100.0 mg/kg/injection, schedule: Q04DX003 (ip), vehicle: Klucel (hydroxypropylcellulose) (HPC)
[8] = dose: 200.0 mg/kg/injection, schedule: Q04DX003 (ip), vehicle: Klucel (hydroxypropylcellulose) (HPC)
[9] = dose: 400.0 mg/kg/injection, schedule: Q04DX003 (ip), vehicle: Klucel (hydroxypropylcellulose) (HPC)
[10] = dose: 12.5 mg/kg/injection, schedule: Q01DX009 (ip), vehicle: saline with Tween-80
[11] = dose: 100.0 mg/kg/injection, schedule: Q01DX001 (ip), vehicle: Klucel (hydroxypropylcellulose) (HPC)
[12] = dose: 200.0 mg/kg/injection, schedule: Q01DX001 (ip), vehicle: Klucel (hydroxypropylcellulose) (HPC)
[13] = dose: 400.0 mg/kg/injection, schedule: Q01DX001 (ip), vehicle: Klucel (hydroxypropylcellulose) (HPC)
[14] = dose: 25.0 mg/kg/injection, schedule: Q01DX009 (ip), vehicle: saline
[15] = dose: 50.0 mg/kg/injection, schedule: Q01DX009 (ip), vehicle: saline

Measured: T/C

COc1ccc(OC)c2c1C(=O)c1ccccc1C2=O
inactive: [1] 100 % of control | [2] 105 % of control | [3] 90 % of control | [4] 106 % of control | [5] 103 % of control

CN(c1ccccc1)c1c2c(oc(=O)c1Cl)-c1ccccc1SC2
inactive: dose: 1.56 mg/kg/injection, schedule: Q01DX009 (ip), vehicle: saline with Tween-80 101 % of control | dose: 3.13 mg/kg/injection, schedule: Q01DX009 (ip), vehicle: saline with Tween-80 97 % of control | dose: 6.25 mg/kg/injection, schedule: Q01DX009 (ip), vehicle: saline with Tween-80 91 % of control

COC(=O)c1ccc(COc2ccc([N+](=O)[O-])cc2Cl)cc1
inactive: dose: 44.0 mg/kg/injection, schedule: Q01DX009 (ip), vehicle: saline with Tween-80 90 % of control | dose: 66.0 mg/kg/injection, schedule: Q01DX009 (ip), vehicle: saline with Tween-80 90 % of control | [3] 90 % of control | dose: 150.0 mg/kg/injection, schedule: Q01DX009 (ip), vehicle: saline with Tween-80 86 % of control | dose: 176.0 mg/kg/injection, schedule: Q04DX003 (ip), vehicle: saline with Tween-80 100 % of control | [4] 115 % of control | dose: 264.0 mg/kg/injection, schedule: Q04DX003 (ip), vehicle: saline with Tween-80 100 % of control | [5] 105 % of control | [6] 90 % of control

CN(C)C1C(=O)C(C(=O)NCNC(CCS(C)=O)C(=O)O)=C(O)C2(O)C(=O)C3=C(O)c4c(O)cccc4C(C)(O)C3CC12 (stereo not drawn)
inactive: dose: 100.0 mg/kg/injection, schedule: Q01DX001 (ip), vehicle: saline 100 % of control | dose: 200.0 mg/kg/injection, schedule: Q01DX001 (ip), vehicle: saline 90 % of control | dose: 400.0 mg/kg/injection, schedule: Q01DX001 (ip), vehicle: saline 86 % of control

CC[C@](C)(O)C(=O)O[C@H]1C(=O)O[C@@H]2C[C@H]3C(C)=C[C@H](O)[C@@H](O)[C@]3(C)[C@H]3[C@@]4(O)OC[C@]32[C@@H]1[C@@H](C)[C@H]4O
inactive: dose: 1.0 mg/kg/injection, schedule: Q01DX010 (ip), vehicle: other 113 % of control | dose: 4.0 mg/kg/injection, schedule: Q01DX010 (ip), vehicle: other 113 % of control

CCS(=O)c1ncc2cnccn12 (stereo not drawn)
inactive: dose: 12.5 mg/kg/injection, schedule: Q04DX003 (ip), vehicle: water 109 % of control | dose: 25.0 mg/kg/injection, schedule: Q04DX003 (ip), vehicle: water 92 % of control | dose: 50.0 mg/kg/injection, schedule: Q01DX009 (ip), vehicle: water 102 % of control | dose: 50.0 mg/kg/injection, schedule: Q04DX003 (ip), vehicle: water 100 % of control and 101 % of control | dose: 100.0 mg/kg/injection, schedule: Q01DX009 (ip), vehicle: water 94 % of control

CCOc1ccccc1NC1=C(OC)C(=O)C(Nc2ccccc2OCC)=C(OC)C1=O
inactive: dose: 100.0 mg/kg/injection, schedule: Q01DX009 (ip), vehicle: Klucel (hydroxypropylcellulose) (HPC) 100 % of control | [7] 91 % of control | dose: 200.0 mg/kg/injection, schedule: Q01DX009 (ip), vehicle: Klucel (hydroxypropylcellulose) (HPC) 95 % of control | [8] 91 % of control and 100 % of control | dose: 400.0 mg/kg/injection, schedule: Q01DX009 (ip), vehicle: Klucel (hydroxypropylcellulose) (HPC) 100 % of control | [9] 86 % of control

CC1CCCCC1(O)CSc1ccccc1 (stereo not drawn)
inactive: [10] 100 % of control and 106 % of control | [1] 102 % of control and 116 % of control | [2] 103 % of control and 113 % of control | [3] 116 % of control (2×) and 124 % of control | [4] 101 % of control

O=C(NC(CSCc1ccccc1)C(=O)NC(Cc1ccc(O)cc1)C(=O)O)OCc1ccccc1 (stereo not drawn) (Cbz-Cys(Bn)-Tyr-OH; configuration not given here)
inactive: dose: 100.0 mg/kg/injection, schedule: Q01DX009 (ip), vehicle: gum acacia 95 % of control | dose: 100.0 mg/kg/injection, schedule: Q04DX003 (ip), vehicle: gum acacia 88 % of control | dose: 200.0 mg/kg/injection, schedule: Q01DX009 (ip), vehicle: gum acacia 95 % of control | dose: 200.0 mg/kg/injection, schedule: Q04DX003 (ip), vehicle: gum acacia 107 % of control | dose: 400.0 mg/kg/injection, schedule: Q01DX009 (ip), vehicle: gum acacia 100 % of control | dose: 400.0 mg/kg/injection, schedule: Q04DX003 (ip), vehicle: gum acacia 92 % of control

C1=C(c2ccccc2)OC(c2ccccc2)C1c1ccccc1 (stereo not drawn)
inactive: dose: 25.0 mg/kg/injection, schedule: Q01DX005 (ip), vehicle: saline with Tween-80 94 % of control | dose: 50.0 mg/kg/injection, schedule: Q01DX005 (ip), vehicle: saline with Tween-80 94 % of control

CCCCCCCCCCOc1ccc(C=O)c(OC)c1
inactive: [11] 100 % of control | [12] 100 % of control | [13] 104 % of control

COC(=O)c1nc2c(C)nc(N(C)C)nc2[nH]c1=O
inactive: dose: 100.0 mg/kg/injection, schedule: Q04DX003 (ip), vehicle: saline with Tween-80 101 % of control | dose: 200.0 mg/kg/injection, schedule: Q04DX003 (ip), vehicle: saline with Tween-80 107 % of control | [6] 100 % of control

O=c1[nH]cn[nH]1
inactive: dose: 100.0 mg/kg/injection, schedule: Q01DX001 (ip), vehicle: saline sonified 122 % of control | dose: 200.0 mg/kg/injection, schedule: Q01DX001 (ip), vehicle: saline sonified 95 % of control | dose: 400.0 mg/kg/injection, schedule: Q01DX001 (ip), vehicle: saline sonified 90 % of control

Cc1cc(NC(=O)NCCOc2ccc(N3C(N)=NC(N)=NC3(C)C)cc2Cl)ccc1S(=O)(=O)F
inactive: dose: 12.5 mg/kg/injection, schedule: Q01DX009 (ip), vehicle: saline 100 % of control | [14] 113 % of control | [15] 122 % of control

O=C(O)CNC(=O)CNC(=O)C(Br)Cc1ccccc1 (stereo not drawn)
inactive: [1] 95 % of control | dose: 25.0 mg/kg/injection, schedule: Q04DX003 (ip), vehicle: Klucel (hydroxypropylcellulose) (HPC) 104 % of control | [2] 87 % of control | dose: 50.0 mg/kg/injection, schedule: Q04DX003 (ip), vehicle: Klucel (hydroxypropylcellulose) (HPC) 104 % of control | [3] 100 % of control | [7] 91 % of control and 100 % of control

COc1cc([N+](=O)[O-])c(C)cc1NCc1ccc(OC)c(OC)c1
inactive: [14] 100 % of control | [15] 99 % of control | dose: 100.0 mg/kg/injection, schedule: Q01DX009 (ip), vehicle: saline 94 % of control

COC(=O)C1CC2C(CCC3C(C)(C(=O)OC)CCCC23C)C(=O)C1(O)C(C)C (stereo not drawn)
inactive: [3] 100 % of control | [4] 100 % of control | [5] 90 % of control

c1ccc(C2=C(c3ccccc3)c3cccc4cccc2c34)cc1
inactive: [11] 95 % of control and 110 % of control | [7] 115 % of control | [12] 105 % of control | [8] 120 % of control | [13] 95 % of control and 105 % of control | [9] 110 % of control

COC(=O)C1=C(C)NC(C)=C(C(=O)OC)C(N2C(=O)CCC2=O)C1 (stereo not drawn)
inactive: [10] 97 % of control | [1] 94 % of control | [2] 95 % of control and 123 % of control | [3] 94 % of control and 107 % of control | [4] 107 % of control

O=C(O)c1ccc(CCCC2CCCC2)cc1
inactive: [7] 109 % of control | [8] 100 % of control
